Data taken from the supplement of paper PMC10883282.

Tests used:
Assay in all cases: relative viability vs DMSO control (72 h) (fraction); higher = more viable cells
[1] = system: G401
Summary of the method: (§1)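 After seeding at densities set for 80–90% confluence in 384-well plates, sarcoma cell lines waited 24 h before 2.5 µl of serially diluted compound was added. Source plates held 10 mM down to 0.0002 mM. Plates were incubated 72 h at 37 °C with 5% CO2, with 0.1% DMSO vehicle and a 5 µM positive control, and relative viability was taken from ATPLite as percent growth averaged over up to triplicate wells, with 1 set as full and 0 as none.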

[2] = system: SK-LMS-1
Summary of the method: as §1

[3] = system: MES-SA
Summary of the method: as §1

[4] = system: SW872
Summary of the method: as §1

[5] = system: SYO-1
Summary of the method: as §1

[6] = system: A204
Summary of the method: as §1

[7] = system: SK-ES-1
Summary of the method: as §1

[8] = system: VA-ES-BJ
Summary of the method: as §1

[9] = system: SW684
Summary of the method: as §1

[10] = system: KHOS-NP
Summary of the method: as §1

[11] = system: RD
Summary of the method: as §1

[12] = system: HS729
Summary of the method: as §1

CC(C)Oc1ccc(-c2nn([C@@H](C)c3oc4ccc(F)cc4c(=O)c3-c3cccc(F)c3)c3ncnc(N)c23)cc1F [Umbralisib]
Details	relative viability
[1], 0.00017 µM	1.02
[1], 0.00051 µM	1.068
[1], 0.00152 µM	1.09
[1], 0.00457 µM	1.05
[1], 0.01372 µM	1.03
[1], 0.04115 µM	1.01
[1], 0.1235 µM	1.02
[1], 0.3704 µM	0.99
[1], 1.111 µM	0.988
[1], 3.333 µM	1.05
[1], 10 µM	1.1
[2], 0.00017 µM	1.07
[2], 0.00051 µM	1.06
[2], 0.00152 µM	1.06
[2], 0.00457 µM	1.04
[2], 0.01372 µM	1.05
[2], 0.04115 µM	1.05
[2], 0.1235 µM	1.03
[2], 0.3704 µM	1.06
[2], 1.111 µM	1.02
[2], 3.333 µM	0.875
[2], 10 µM	0.752
[3], 0.00017 µM	0.946
[3], 0.00051 µM	0.928
[3], 0.00152 µM	0.94
[3], 0.00457 µM	0.981
[3], 0.01372 µM	0.957
[3], 0.04115 µM	0.9436
[3], 0.1235 µM	0.943
[3], 0.3704 µM	0.945
[3], 1.111 µM	0.937
[3], 3.333 µM	0.922
[3], 10 µM	0.747
[4], 0.00017 µM	1.09
[4], 0.00051 µM	1.09
[4], 0.00152 µM	1.1
[4], 0.00457 µM	1.08
[4], 0.01372 µM	1.11
[4], 0.04115 µM	1.087
[4], 0.1235 µM	1.07
[4], 0.3704 µM	1.07
[4], 1.111 µM	1.09
[4], 3.333 µM	1.095
[4], 10 µM	1.04
[5], 0.00017 µM	1.04
[5], 0.00051 µM	1.02
[5], 0.00152 µM	1.03
[5], 0.00457 µM	1.03
[5], 0.01372 µM	1.03
[5], 0.04115 µM	0.995
[5], 0.1235 µM	1.01
[5], 0.3704 µM	1.02
[5], 1.111 µM	0.975
[5], 3.333 µM	0.968
[5], 10 µM	0.897
[6], 0.00017 µM	1.08
[6], 0.00051 µM	1.11
[6], 0.00152 µM	1.12
[6], 0.00457 µM	1.12
[6], 0.01372 µM	1.08
[6], 0.04115 µM	1.09
[6], 0.1235 µM	1.08
[6], 0.3704 µM	1.07
[6], 1.111 µM	0.986
[6], 3.333 µM	1.02
[6], 10 µM	0.9
[7], 0.00017 µM	1.07
[7], 0.00051 µM	1.07
[7], 0.00152 µM	1.05
[7], 0.00457 µM	1.07
[7], 0.01372 µM	1.06
[7], 0.04115 µM	1.09
[7], 0.1235 µM	1.04
[7], 0.3704 µM	1.04
[7], 1.111 µM	1.04
[7], 3.333 µM	1.08
[7], 10 µM	1.02
[8], 0.00017 µM	1.07
[8], 0.00051 µM	1.07
[8], 0.00152 µM	1.11
[8], 0.00457 µM	1.08
[8], 0.01372 µM	1.08
[8], 0.04115 µM	1.05
[8], 0.1235 µM	1.07
[8], 0.3704 µM	1.05
[8], 1.111 µM	1.05
[8], 3.333 µM	1.05
[8], 10 µM	1.1
[9], 0.00017 µM	1.13
[9], 0.00051 µM	1.17
[9], 0.00152 µM	1.16
[9], 0.00457 µM	1.21
[9], 0.01372 µM	1.2
[9], 0.04115 µM	1.19
[9], 0.1235 µM	1.16
[9], 0.3704 µM	1.06
[9], 1.111 µM	0.966
[9], 3.333 µM	0.9274
[9], 10 µM	0.882
[10], 0.00017 µM	1.091
[10], 0.00051 µM	1.085
[10], 0.00152 µM	1.095
[10], 0.00457 µM	1.1
[10], 0.01372 µM	1.1
[10], 0.04115 µM	1.09
[10], 0.1235 µM	1.11
[10], 0.3704 µM	1.08
[10], 1.111 µM	1.1
[10], 3.333 µM	1.1
[10], 10 µM	1.077
[11], 0.00017 µM	1.1
[11], 0.00051 µM	1.08
[11], 0.00152 µM	1.11
[11], 0.00457 µM	1.1
[11], 0.01372 µM	1.113
[11], 0.04115 µM	1.11
[11], 0.1235 µM	1.12
[11], 0.3704 µM	1.08
[11], 1.111 µM	1.14
[11], 3.333 µM	1.11
[11], 10 µM	1.11
[12], 0.00017 µM	1.09
[12], 0.00051 µM	1.09
[12], 0.00152 µM	1.05
[12], 0.00457 µM	1.04
[12], 0.01372 µM	1.05
[12], 0.04115 µM	0.991
[12], 0.1235 µM	1.04
[12], 0.3704 µM	1.01
[12], 1.111 µM	0.942
[12], 3.333 µM	0.936
[12], 10 µM	0.895

C[C@H](Nc1ncnc2nc[nH]c12)c1cc2cccc(Cl)c2c(=O)n1-c1ccccc1 [Duvelisib]
Details	relative viability
[1], 0.00017 µM	1.07
[1], 0.00051 µM	1.03
[1], 0.00152 µM	1.05
[1], 0.00457 µM	1.017
[1], 0.01372 µM	0.987
[1], 0.04115 µM	0.983
[1], 0.1235 µM	0.966
[1], 0.3704 µM	0.9339
[1], 1.111 µM	0.862
[1], 3.333 µM	0.763
[1], 10 µM	0.593
[2], 0.00017 µM	1.05
[2], 0.00051 µM	1.04
[2], 0.00152 µM	1.08
[2], 0.00457 µM	1.05
[2], 0.01372 µM	1.03
[2], 0.04115 µM	0.9363
[2], 0.1235 µM	0.91
[2], 0.3704 µM	0.811
[2], 1.111 µM	0.688
[2], 3.333 µM	0.572
[2], 10 µM	0.438
[3], 0.00017 µM	0.98
[3], 0.00051 µM	0.961
[3], 0.00152 µM	0.964
[3], 0.00457 µM	0.944
[3], 0.01372 µM	0.906
[3], 0.04115 µM	0.9422
[3], 0.1235 µM	0.923
[3], 0.3704 µM	0.849
[3], 1.111 µM	0.77
[3], 3.333 µM	0.631
[3], 10 µM	0.453
[4], 0.00017 µM	1.11
[4], 0.00051 µM	1.1
[4], 0.00152 µM	1.08
[4], 0.00457 µM	1.11
[4], 0.01372 µM	1.08
[4], 0.04115 µM	1.03
[4], 0.1235 µM	1.02
[4], 0.3704 µM	0.897
[4], 1.111 µM	0.813
[4], 3.333 µM	0.666
[4], 10 µM	0.519
[5], 0.00017 µM	1.03
[5], 0.00051 µM	1.01
[5], 0.00152 µM	0.994
[5], 0.00457 µM	0.995
[5], 0.01372 µM	0.9906
[5], 0.04115 µM	1.01
[5], 0.1235 µM	0.925
[5], 0.3704 µM	0.911
[5], 1.111 µM	0.841
[5], 3.333 µM	0.797
[5], 10 µM	0.688
[6], 0.00017 µM	1.1
[6], 0.00051 µM	1.09
[6], 0.00152 µM	1.07
[6], 0.00457 µM	1.096
[6], 0.01372 µM	1.08
[6], 0.04115 µM	1.06
[6], 0.1235 µM	1.01
[6], 0.3704 µM	0.908
[6], 1.111 µM	0.761
[6], 3.333 µM	0.555
[6], 10 µM	0.445
[7], 0.00017 µM	1.09
[7], 0.00051 µM	1.07
[7], 0.00152 µM	1.06
[7], 0.00457 µM	1.05
[7], 0.01372 µM	1.02
[7], 0.04115 µM	0.968
[7], 0.1235 µM	0.99
[7], 0.3704 µM	0.96
[7], 1.111 µM	0.8914
[7], 3.333 µM	0.768
[7], 10 µM	0.564
[8], 0.00017 µM	1.09
[8], 0.00051 µM	1.1
[8], 0.00152 µM	1.09
[8], 0.00457 µM	1.1
[8], 0.01372 µM	1.08
[8], 0.04115 µM	1.06
[8], 0.1235 µM	1.01
[8], 0.3704 µM	0.941
[8], 1.111 µM	0.834
[8], 3.333 µM	0.688
[8], 10 µM	0.48
[9], 0.00017 µM	1.15
[9], 0.00051 µM	1.11
[9], 0.00152 µM	1.09
[9], 0.00457 µM	0.899
[9], 0.01372 µM	0.838
[9], 0.04115 µM	0.722
[9], 0.1235 µM	0.683
[9], 0.3704 µM	0.633
[9], 1.111 µM	0.543
[9], 3.333 µM	0.501
[9], 10 µM	0.453
[10], 0.00017 µM	1.09
[10], 0.00051 µM	1.09
[10], 0.00152 µM	1.1
[10], 0.00457 µM	1.1
[10], 0.01372 µM	1.121
[10], 0.04115 µM	1.09
[10], 0.1235 µM	1.07
[10], 0.3704 µM	1.07
[10], 1.111 µM	1.08
[10], 3.333 µM	1.07
[10], 10 µM	1.07
[11], 0.00017 µM	1.08
[11], 0.00051 µM	1.1
[11], 0.00152 µM	1.13
[11], 0.00457 µM	1.11
[11], 0.01372 µM	1.12
[11], 0.04115 µM	1.11
[11], 0.1235 µM	1.08
[11], 0.3704 µM	1.07
[11], 1.111 µM	0.994
[11], 3.333 µM	0.84
[11], 10 µM	0.619
[12], 0.00017 µM	1.06
[12], 0.00051 µM	1.09
[12], 0.00152 µM	1.03
[12], 0.00457 µM	1.03
[12], 0.01372 µM	1
[12], 0.04115 µM	0.987
[12], 0.1235 µM	1.02
[12], 0.3704 µM	0.891
[12], 1.111 µM	0.863
[12], 3.333 µM	0.726
[12], 10 µM	0.606
